Where “and” joins values, the source holds several entries; their conditions need not be identical. Identical values can stand only once. Inconclusive results and toxic doses are left out. No stated cut-off is given here; in the data, active means T/C of 150% or more; inactive means T/C below 125%.
System: L1210 leukemia ip in BDF1 mice, survival T/C
Test: NCI In Vivo Anticancer Drug Screen. Data for tumor model L1210 Leukemia (intraperitoneal) in B6D2F1 (BDF1) mice
Settings: higher = longer survival
Outline: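 Transplantable tumor model; survival measured in treated vs vehicle control mice. Value = treated/control.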

[1] = endpoint: mean survival time, dose: 100.0 mg/kg/injection, schedule: Q01DX009 (ip), vehicle: saline with Tween-80
[2] = endpoint: mean survival time, dose: 100.0 mg/kg/injection, schedule: Q01DX009 (ip), vehicle: Klucel (hydroxypropylcellulose) (HPC)
[3] = endpoint: mean survival time, dose: 100.0 mg/kg/injection, schedule: Q04DX003 (ip), vehicle: Klucel (hydroxypropylcellulose) (HPC)
[4] = endpoint: mean survival time, dose: 200.0 mg/kg/injection, schedule: Q01DX009 (ip), vehicle: Klucel (hydroxypropylcellulose) (HPC)
[5] = endpoint: mean survival time, dose: 200.0 mg/kg/injection, schedule: Q04DX003 (ip), vehicle: Klucel (hydroxypropylcellulose) (HPC)
[6] = endpoint: mean survival time, dose: 400.0 mg/kg/injection, schedule: Q01DX009 (ip), vehicle: Klucel (hydroxypropylcellulose) (HPC)
[7] = endpoint: mean survival time, dose: 400.0 mg/kg/injection, schedule: Q04DX003 (ip), vehicle: Klucel (hydroxypropylcellulose) (HPC)
[8] = endpoint: mean survival time, dose: 100.0 mg/kg/injection, schedule: Q01DX001 (ip), vehicle: Klucel (hydroxypropylcellulose) (HPC)
[9] = endpoint: mean survival time, dose: 200.0 mg/kg/injection, schedule: Q01DX001 (ip), vehicle: Klucel (hydroxypropylcellulose) (HPC)
[10] = endpoint: mean survival time, dose: 400.0 mg/kg/injection, schedule: Q01DX001 (ip), vehicle: Klucel (hydroxypropylcellulose) (HPC)
[11] = endpoint: mean survival time, dose: 100.0 mg/kg/injection, schedule: Q01DX001 (ip), vehicle: saline
[12] = endpoint: mean survival time, dose: 200.0 mg/kg/injection, schedule: Q01DX001 (ip), vehicle: saline
[13] = endpoint: mean survival time, dose: 400.0 mg/kg/injection, schedule: Q01DX001 (ip), vehicle: saline
[14] = endpoint: mean survival time, dose: 100.0 mg/kg/injection, schedule: Q01DX009 (ip), vehicle: saline
[15] = endpoint: mean survival time, dose: 200.0 mg/kg/injection, schedule: Q01DX009 (ip), vehicle: saline
[16] = endpoint: mean survival time, dose: 400.0 mg/kg/injection, schedule: Q01DX009 (ip), vehicle: saline

Measured: T/C

CCCNC1(C(N)=O)CCN(Cc2ccccc2)CC1
inactive: endpoint: mean survival time, dose: 25.0 mg/kg/injection, schedule: Q01DX009 (ip), vehicle: saline with Tween-80 93 % of control | endpoint: mean survival time, dose: 25.0 mg/kg/injection, schedule: Q04DX003 (ip), vehicle: saline with Tween-80 97 % of control | endpoint: mean survival time, dose: 50.0 mg/kg/injection, schedule: Q01DX009 (ip), vehicle: saline with Tween-80 95 % of control | endpoint: mean survival time, dose: 50.0 mg/kg/injection, schedule: Q04DX003 (ip), vehicle: saline with Tween-80 97 % of control | [1] 91 % of control | endpoint: mean survival time, dose: 100.0 mg/kg/injection, schedule: Q04DX003 (ip), vehicle: saline with Tween-80 97 % of control and 101 % of control

O=S1(=O)CC(N2CCCCC2)C1CN1CCCCC1 (centres undefined)
inactive: endpoint: mean survival time, dose: 75.0 mg/kg/injection, schedule: Q01DX001 (ip), vehicle: saline 97 % of control | endpoint: mean survival time, dose: 150.0 mg/kg/injection, schedule: Q01DX001 (ip), vehicle: saline 89 % of control

O=C1C=CC(=O)C=C1
inactive: endpoint: mean survival time, dose: 0.5 mg/kg/injection, schedule: Q01DX009 (ip), vehicle: saline 97 % of control | endpoint: mean survival time, dose: 1.0 mg/kg/injection, schedule: Q01DX009 (ip), vehicle: saline 97 % of control | endpoint: mean survival time, dose: 2.0 mg/kg/injection, schedule: Q01DX009 (ip), vehicle: saline 94 % of control | endpoint: mean survival time, dose: 4.0 mg/kg/injection, schedule: Q01DX009 (ip), vehicle: saline 94 % of control

Cc1cn(C2CC(O)C(COC(c3ccccc3)(c3ccccc3)c3ccccc3)O2)c(=O)[nH]c1=O (centres undefined)
inactive: endpoint: mean survival time, dose: 100.0 mg/kg/injection, schedule: Q01DX005 (ip), vehicle: saline 104 % of control | endpoint: mean survival time, dose: 200.0 mg/kg/injection, schedule: Q01DX005 (ip), vehicle: saline 96 % of control

COC(=O)c1cc(Cl)ccc1OCC(=O)Nc1ccc([N+](=O)[O-])cc1
inactive: [2] 98 % of control | [3] 102 % of control | [4] 93 % of control | [5] 95 % of control | [6] 105 % of control | [7] 103 % of control

COC/C(C)=C/Cl
inactive: endpoint: mean survival time, dose: 100.0 mg/kg/injection, schedule: Q01DX001 (ip), vehicle: acetone 102 % of control | endpoint: mean survival time, dose: 200.0 mg/kg/injection, schedule: Q01DX001 (ip), vehicle: acetone 100 % of control | endpoint: mean survival time, dose: 400.0 mg/kg/injection, schedule: Q01DX001 (ip), vehicle: acetone 96 % of control

O=C(NCCCl)Nc1ccc2c3c(cccc13)CC2
inactive: [2] 87 % of control | [5] 95 % of control

O=[N+]([O-])c1ccc(C2N=NCCS2)cc1 (centres undefined)
inactive: [8] 98 % of control | [9] 104 % of control | [10] 95 % of control

O=C1CCN(C2CC(O)C(CO)C2)C(=O)N1 (centres undefined)
inactive: [11] 101 % of control | [12] 95 % of control | [13] 101 % of control

CC1C2COCC2CC2OC21 (centres undefined)
inactive: endpoint: mean survival time, dose: 50.0 mg/kg/injection, schedule: Q01DX001 (ip), vehicle: saline sonified 124 % of control | endpoint: mean survival time, dose: 100.0 mg/kg/injection, schedule: Q01DX001 (ip), vehicle: saline sonified 109 % of control | endpoint: mean survival time, dose: 200.0 mg/kg/injection, schedule: Q01DX001 (ip), vehicle: saline sonified 102 % of control

COc1ccc2c(c1)c(CC(=O)O)c(Br)n2Cc1ccccc1
inactive: [8] 112 % of control | [3] 98 % of control | [9] 112 % of control | [5] 100 % of control | [10] 101 % of control | [7] 102 % of control

N#CCCN1CCCSC1=S
inactive: endpoint: mean survival time, dose: 75.0 mg/kg/injection, schedule: Q01DX001 (ip), vehicle: other 109 % of control | endpoint: mean survival time, dose: 150.0 mg/kg/injection, schedule: Q01DX001 (ip), vehicle: other 115 % of control | endpoint: mean survival time, dose: 300.0 mg/kg/injection, schedule: Q01DX001 (ip), vehicle: other 113 % of control

CCCCCCC(C)C1C(=O)NC(=S)NC1=O (centres undefined)
inactive: endpoint: mean survival time, dose: 75.0 mg/kg/injection, schedule: Q01DX001 (ip), vehicle: carboxymethylcellulose (CMC) 93 % of control | endpoint: mean survival time, dose: 150.0 mg/kg/injection, schedule: Q01DX001 (ip), vehicle: carboxymethylcellulose (CMC) 91 % of control | endpoint: mean survival time, dose: 300.0 mg/kg/injection, schedule: Q01DX001 (ip), vehicle: carboxymethylcellulose (CMC) 94 % of control

Cc1cc(N(CCCOS(C)(=O)=O)CCCOS(C)(=O)=O)ccc1C=Nc1ccc(-c2nc(Cc3ccccc3)sc2C)cc1
inactive: [1] 96 % of control | endpoint: mean survival time, dose: 200.0 mg/kg/injection, schedule: Q01DX009 (ip), vehicle: saline with Tween-80 98 % of control

CCOC(=O)C1CCC(C(=O)OCC)N1Cc1ccccc1 (centres undefined)
inactive: [14] 101 % of control | [15] 104 % of control | [16] 108 % of control

Nc1ccccc1SC1CC(=O)N(c2ccc(Br)cc2Cl)C1=O (centres undefined)
inactive: endpoint: mean survival time, dose: 50.0 mg/kg/injection, schedule: Q01DX009 (ip), vehicle: Klucel (hydroxypropylcellulose) (HPC) 90 % of control and 92 % of control | [2] 91 % of control | [3] 98 % of control | [4] 93 % of control and 96 % of control and 91 % of control | [5] 93 % of control | [6] 96 % of control | [7] 93 % of control

CC(C)(C)c1ccc(C(C)(C)C)c(O)c1
inactive: endpoint: mean survival time, dose: 25.0 mg/kg/injection, schedule: Q04DX002 (ip), vehicle: Klucel (hydroxypropylcellulose) (HPC) 92 % of control and 90 % of control | endpoint: mean survival time, dose: 50.0 mg/kg/injection, schedule: Q04DX002 (ip), vehicle: Klucel (hydroxypropylcellulose) (HPC) 95 % of control and 96 % of control | endpoint: mean survival time, dose: 100.0 mg/kg/injection, schedule: Q04DX002 (ip), vehicle: Klucel (hydroxypropylcellulose) (HPC) 92 % of control and 104 % of control | endpoint: mean survival time, dose: 200.0 mg/kg/injection, schedule: Q04DX002 (ip), vehicle: Klucel (hydroxypropylcellulose) (HPC) 92 % of control and 86 % of control

CSc1nc2c(=O)[nH][nH]c(=O)c2n1Cc1ccccc1
inactive: endpoint: mean survival time, dose: 100.0 mg/kg/injection, schedule: Q01DX001 (ip), vehicle: carboxymethylcellulose (CMC) 92 % of control | endpoint: mean survival time, dose: 200.0 mg/kg/injection, schedule: Q01DX001 (ip), vehicle: carboxymethylcellulose (CMC) 90 % of control | endpoint: mean survival time, dose: 400.0 mg/kg/injection, schedule: Q01DX001 (ip), vehicle: carboxymethylcellulose (CMC) 95 % of control

O=C(CC(=O)Nc1ccccc1)Cc1ccccc1
inactive: [11] 102 % of control | [14] 93 % of control | [12] 88 % of control | [15] 90 % of control | [13] 93 % of control | [16] 93 % of control

[I][Hg][CH2]C1COC([CH2][Hg][I])CO1 (centres undefined)
inactive: endpoint: mean survival time, dose: 6.25 mg/kg/injection, schedule: Q01DX010 (ip), vehicle: saline 98 % of control | endpoint: mean survival time, dose: 12.5 mg/kg/injection, schedule: Q01DX009 (ip), vehicle: saline 97 % of control and 100 % of control | endpoint: mean survival time, dose: 12.5 mg/kg/injection, schedule: Q01DX010 (ip), vehicle: saline 106 % of control | endpoint: mean survival time, dose: 25.0 mg/kg/injection, schedule: Q01DX009 (ip), vehicle: saline 96 % of control and 101 % of control | endpoint: mean survival time, dose: 25.0 mg/kg/injection, schedule: Q01DX010 (ip), vehicle: saline 110 % of control | endpoint: mean survival time, dose: 50.0 mg/kg/injection, schedule: Q01DX009 (ip), vehicle: saline 93 % of control and 92 % of control | endpoint: mean survival time, dose: 50.0 mg/kg/injection, schedule: Q01DX010 (ip), vehicle: saline 97 % of control | [14] 93 % of control and 97 % of control | endpoint: median survival time, dose: 12.5 mg/kg/injection, schedule: Q01DX009 (ip), vehicle: saline 93 % of control | endpoint: median survival time, dose: 25.0 mg/kg/injection, schedule: Q01DX009 (ip), vehicle: saline 93 % of control | endpoint: median survival time, dose: 50.0 mg/kg/injection, schedule: Q01DX009 (ip), vehicle: saline 93 % of control

Nc1ccccc1C(O)c1ccccc1 (centres undefined)
inactive: [11] 104 % of control | [12] 106 % of control
